The source made the active and inactive calls.
How the values were obtained:
MDA-MB-231 [1] = assay: Antitumor activity against human MDA-MB-231 cells xenografted in ip dosed NOD/SCID mouse assessed as upregulation of PARP expression administered at 3 days interval for 24 days and measured on day 25 by Western blot analysis; format: functional, organism-based; conditions: dose 5-15 mg/kg, time 25.0 day, DDE = dose-dependent effect
MDA-MB-231 [2] = assay: Cell cycle arrest in human MDA-MB-231 cells assessed as increase in CHK1 phosphorylation at Ser 345 residue measured after 48 hrs by Western blot analysis; format: functional, cell-based; conditions: dose 5-20 µM, DDE = dose-dependent effect
MDA-MB-231 [3] = assay: Induction of apoptosis in human MDA-MB-231 cells assessed as increase in cleaved caspase-3 expression measured after 48 hrs by Western blot analysis; format: functional, cell-based; conditions: dose 5-20 µM, DDE = dose-dependent effect
MDA-MB-468 [4] = assay: Inhibition of autophagic flux in human MDA-MB-468 cells assessed as reduction in polyubiquitinated H2A expression measured after 48 hrs by Western blot analysis; format: functional, cell-based
U-251 = assay: Antiproliferative activity against human U-251 cells assessed as cell growth inhibition measured after 48 hrs by MTT assay; format: functional, cell-based; conditions: U-251, 48 h
MDA-MB-468 [5] = assay: Induction of apoptosis in human MDA-MB-468 cells assessed as increase in cytochrome c expression measured after 48 hrs by Western blot analysis; format: functional, cell-based; conditions: dose 5-20 µM, DDE = dose-dependent effect
[6] = molecular target: Serine-protein kinase ATM (Homo sapiens) (UniProt Q13315); assay: Activation of ATM phosphorylation in human MDA-MB-231 cells at 5 to 20 uM measured after 6 to 48 hrs by Western blot analysis; format: cell-based; conditions: filed as activator, dose 5-20 µM, time 6-48 hrs
Chain of Serine-protein kinase ATM (Homo sapiens) (Q13315 whole entry): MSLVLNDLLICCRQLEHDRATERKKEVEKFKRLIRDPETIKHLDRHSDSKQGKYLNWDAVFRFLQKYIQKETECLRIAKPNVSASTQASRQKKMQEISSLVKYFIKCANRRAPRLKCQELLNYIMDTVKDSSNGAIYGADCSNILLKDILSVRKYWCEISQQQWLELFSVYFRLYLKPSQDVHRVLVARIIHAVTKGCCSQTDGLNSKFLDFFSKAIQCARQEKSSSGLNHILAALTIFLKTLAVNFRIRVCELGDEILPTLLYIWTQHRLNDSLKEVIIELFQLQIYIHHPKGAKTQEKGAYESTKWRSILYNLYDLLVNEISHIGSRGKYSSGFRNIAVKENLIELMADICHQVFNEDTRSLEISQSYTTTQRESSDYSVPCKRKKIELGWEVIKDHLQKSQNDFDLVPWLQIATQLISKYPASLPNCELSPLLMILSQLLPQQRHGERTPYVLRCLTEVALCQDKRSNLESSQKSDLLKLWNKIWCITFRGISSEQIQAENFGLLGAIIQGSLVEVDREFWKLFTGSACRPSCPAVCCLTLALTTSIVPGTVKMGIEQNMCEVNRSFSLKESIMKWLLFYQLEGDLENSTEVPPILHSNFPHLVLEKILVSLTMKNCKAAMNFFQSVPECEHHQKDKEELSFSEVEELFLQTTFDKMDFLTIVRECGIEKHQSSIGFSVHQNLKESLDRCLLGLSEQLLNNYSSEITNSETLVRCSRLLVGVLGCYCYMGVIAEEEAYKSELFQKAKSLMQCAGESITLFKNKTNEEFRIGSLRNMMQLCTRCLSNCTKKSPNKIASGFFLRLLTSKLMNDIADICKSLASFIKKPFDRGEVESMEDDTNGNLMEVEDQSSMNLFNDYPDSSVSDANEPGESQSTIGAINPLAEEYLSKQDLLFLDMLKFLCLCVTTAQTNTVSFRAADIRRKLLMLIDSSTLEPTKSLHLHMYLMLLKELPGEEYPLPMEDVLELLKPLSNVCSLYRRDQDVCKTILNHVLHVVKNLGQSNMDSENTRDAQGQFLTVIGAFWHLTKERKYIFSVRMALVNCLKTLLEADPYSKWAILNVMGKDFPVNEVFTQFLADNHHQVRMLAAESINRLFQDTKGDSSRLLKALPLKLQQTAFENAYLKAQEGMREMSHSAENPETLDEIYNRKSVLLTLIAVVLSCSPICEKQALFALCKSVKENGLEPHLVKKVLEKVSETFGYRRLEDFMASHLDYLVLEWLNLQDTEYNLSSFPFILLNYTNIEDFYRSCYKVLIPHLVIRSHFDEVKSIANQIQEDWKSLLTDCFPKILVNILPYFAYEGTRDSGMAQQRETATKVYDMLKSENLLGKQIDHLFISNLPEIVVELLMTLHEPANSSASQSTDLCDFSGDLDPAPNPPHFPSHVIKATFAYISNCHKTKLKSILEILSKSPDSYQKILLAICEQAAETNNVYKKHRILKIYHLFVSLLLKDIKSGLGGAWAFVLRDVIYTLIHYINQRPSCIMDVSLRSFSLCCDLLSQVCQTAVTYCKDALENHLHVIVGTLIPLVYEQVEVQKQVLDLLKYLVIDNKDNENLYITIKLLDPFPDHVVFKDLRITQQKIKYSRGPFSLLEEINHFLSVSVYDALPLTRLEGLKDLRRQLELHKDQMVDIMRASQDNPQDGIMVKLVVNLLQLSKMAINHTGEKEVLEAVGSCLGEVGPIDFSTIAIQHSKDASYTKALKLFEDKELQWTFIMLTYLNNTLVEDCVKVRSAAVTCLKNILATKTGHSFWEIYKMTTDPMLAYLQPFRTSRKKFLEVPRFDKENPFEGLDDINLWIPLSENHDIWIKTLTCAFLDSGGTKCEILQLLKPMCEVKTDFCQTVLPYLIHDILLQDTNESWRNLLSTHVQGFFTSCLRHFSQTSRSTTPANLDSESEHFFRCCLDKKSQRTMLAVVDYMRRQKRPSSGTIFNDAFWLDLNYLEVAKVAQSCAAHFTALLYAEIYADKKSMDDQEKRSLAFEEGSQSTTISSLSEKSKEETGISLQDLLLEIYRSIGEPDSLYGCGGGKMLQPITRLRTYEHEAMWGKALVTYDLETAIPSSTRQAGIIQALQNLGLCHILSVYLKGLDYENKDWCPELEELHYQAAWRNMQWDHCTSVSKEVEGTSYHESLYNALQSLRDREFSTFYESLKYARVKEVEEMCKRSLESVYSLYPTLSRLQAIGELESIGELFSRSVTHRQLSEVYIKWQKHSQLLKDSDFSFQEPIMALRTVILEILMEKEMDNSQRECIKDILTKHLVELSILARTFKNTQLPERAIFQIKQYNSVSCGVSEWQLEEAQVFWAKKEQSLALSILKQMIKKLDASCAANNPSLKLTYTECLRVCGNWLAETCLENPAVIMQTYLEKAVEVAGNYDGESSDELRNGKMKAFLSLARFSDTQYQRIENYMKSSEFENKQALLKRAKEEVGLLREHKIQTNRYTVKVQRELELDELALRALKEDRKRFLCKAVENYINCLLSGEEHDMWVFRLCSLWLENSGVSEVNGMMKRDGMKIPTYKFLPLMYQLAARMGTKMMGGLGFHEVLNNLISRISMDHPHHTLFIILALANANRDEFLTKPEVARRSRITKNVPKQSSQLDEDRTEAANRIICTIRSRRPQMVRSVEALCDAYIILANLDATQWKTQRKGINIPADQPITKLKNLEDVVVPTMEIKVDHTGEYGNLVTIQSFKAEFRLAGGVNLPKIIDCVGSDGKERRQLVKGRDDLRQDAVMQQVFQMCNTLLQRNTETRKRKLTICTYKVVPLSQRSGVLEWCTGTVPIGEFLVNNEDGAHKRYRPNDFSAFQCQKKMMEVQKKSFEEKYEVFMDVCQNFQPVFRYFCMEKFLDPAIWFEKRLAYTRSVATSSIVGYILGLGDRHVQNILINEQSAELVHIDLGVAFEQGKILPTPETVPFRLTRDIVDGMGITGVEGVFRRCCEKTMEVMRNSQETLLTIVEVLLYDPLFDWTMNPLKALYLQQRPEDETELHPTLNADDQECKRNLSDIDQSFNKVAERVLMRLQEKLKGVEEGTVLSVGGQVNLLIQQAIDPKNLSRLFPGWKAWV

MDA-MB-231 [7] = assay: Induction of apoptosis in human MDA-MB-231 cells assessed as increase in cytochrome c expression measured after 48 hrs by Western blot analysis; format: functional, cell-based; conditions: dose 5-20 µM, DDE = dose-dependent effect
HeLa = assay: Inhibition of autophagic flux in human HeLa cells expressing mRFP-EGFP-LC3B assessed as blockage of autophagosome-lysosome fusion by measuring accumulation of yellow fluorescent vesicles; format: functional, cell-based
MDA-MB-468 [8] = assay: Cell cycle arrest in human MDA-MB-468 cells assessed as reduction in cyclin A expression measured after 48 hrs by Western blot analysis; format: functional, cell-based; conditions: dose 5-20 µM, DDE = dose-dependent effect
MDA-MB-231 [9] = assay: Antiproliferative activity against human MDA-MB-231 cells assessed as reduction in cell count by microscopy; format: functional, cell-based
MDA-MB-231 [10] = assay: Cell cycle arrest in human MDA-MB-231 cells assessed as reduction in CDK1 expression measured after 48 hrs by Western blot analysis; format: functional, cell-based; conditions: dose 5-20 µM, DDE = dose-dependent effect
MDA-MB-231 [11] = assay: Inhibition of autophagy in human MDA-MB-231 cells assessed as increase in p62 expression at 5 to 20 uM measured after 48 hrs by Western blot analysis; format: functional, cell-based; conditions: dose 5-20 µM, DDE = dose-dependent effect
MDA-MB-231 [12] = assay: Antitumor activity against human MDA-MB-231 cells xenografted in NOD/SCID mouse assessed as reduction in Ki67 expression at 5 to 15 mg/kg, ip administered at 3 days interval for 24 days and measured on day 25 by immunohistochemical analysis; format: functional, organism-based; conditions: dose 5-15 mg/kg, time 25.0 day
SW-620 = assay: Antiproliferative activity against human SW-620 cells assessed as cell growth inhibition measured after 48 hrs by MTT assay; format: functional, cell-based; conditions: SW-620, 48 h
MDA-MB-468 [13] = assay: Induction of apoptosis in human MDA-MB-468 cells assessed as increase in Bax expression measured after 48 hrs by Western blot analysis; format: functional, cell-based; conditions: dose 5-20 µM, DDE = dose-dependent effect
MDA-MB-231 [14] = assay: Inhibition of autophagic flux in human MDA-MB-231 cells assessed as reduction in polyubiquitinated H2A expression measured after 48 hrs by Western blot analysis; format: functional, cell-based
MDA-MB-231 [15] = assay: Cell cycle arrest in human MDA-MB-231 cells assessed as reduction in cyclin B expression measured after 48 hrs by Western blot analysis; format: functional, cell-based; conditions: dose 5-20 µM, DDE = dose-dependent effect
MDA-MB-231 [16] = assay: Cell cycle arrest in human MDA-MB-231 cells assessed as increase in CHK2 phosphorylation at Thr 68 residue measured after 48 hrs by Western blot analysis; format: functional, cell-based; conditions: dose 5-20 µM, DDE = dose-dependent effect
MDA-MB-231 [17] = assay: Induction of apoptosis in human MDA-MB-231 cells assessed as increase in cleaved PARP expression measured after 48 hrs by Western blot analysis; format: functional, cell-based; conditions: dose 5-20 µM, DDE = dose-dependent effect
MDA-MB-468 [18] = assay: Inhibition of autophagic flux in human MDA-MB-468 cells assessed as increase in nuclear p62 expression measured after 48 hrs by Western blot analysis; format: functional, cell-based; conditions: dose 5-20 µM, DDE = dose-dependent effect
MDA-MB-231 [19] = assay: Induction of DNA damage in human MDA-MB-231 cells assessed as reduction in RAD51 expression measured after 6 to 48 hrs by Western blot analysis; format: functional, cell-based; conditions: dose 5-20 µM, time 6-48 hrs, DDE = dose-dependent effect
U-87 MG = assay: Antiproliferative activity against human U87 cells assessed as cell growth inhibition measured after 48 hrs by MTT assay; format: functional, cell-based, U-87MG ATCC
MDA-MB-231 [20] = assay: Induction of mitochondrial membrane potential loss in human MDA-MB-231 cells at 20 uM measured after 48 hrs by JC-1 staining based assay relative to control; format: functional
HCT-116 = assay: Antiproliferative activity against human HCT-116 cells assessed as cell growth inhibition measured after 48 hrs by MTT assay; format: functional, cell-based; conditions: HCT-116, 48 h
MDA-MB-231 [21] = assay: Induction of apoptosis in human MDA-MB-231 cells assessed as increase in late apoptotic cells measured after 48 hrs by Annexin V-FITC/propidium iodide staining based flow cytometry; format: functional, cell-based; conditions: dose 5-20 µM, DDE = dose-dependent effect
MDA-MB-468 [22] = assay: Cell cycle arrest in human MDA-MB-468 cells assessed as reduction in CDK1 expression measured after 48 hrs by Western blot analysis; format: functional, cell-based; conditions: dose 5-20 µM, DDE = dose-dependent effect
HSC-3 = assay: Antiproliferative activity against human HSC-3 cells assessed as cell growth inhibition measured after 48 hrs by MTT assay; format: functional, cell-based; conditions: HSC-3, 48 h
MDA-MB-468 [23] = assay: Inhibition of autophagic flux in human MDA-MB-468 cells assessed as increase in cytoplasmic p62 expression measured after 48 hrs by Western blot analysis; format: functional, cell-based; conditions: dose 5-20 µM, DDE = dose-dependent effect
MDA-MB-231 [24] = assay: Antitumor activity against human MDA-MB-231 cells xenografted in ip dosed NOD/SCID mouse assessed as upregulation of p62 expression administered at 3 days interval for 24 days and measured on day 25 by Western blot analysis; format: functional, organism-based; conditions: dose 5-15 mg/kg, time 25.0 day, DDE = dose-dependent effect
MDA-MB-468 [25] = assay: Inhibition of autophagy in human MDA-MB-468 cells assessed as increase in p62 expression at 5 to 20 uM measured after 48 hrs by Western blot analysis; format: functional, cell-based; conditions: dose 5-20 µM, DDE = dose-dependent effect
MDA-MB-468 [26] = assay: Antiproliferative activity against human MDA-MB-468 cells assessed as reduction in cell count by microscopy; format: functional, cell-based
MDA-MB-231 [27] = assay: Inhibition of colony formation in human MDA-MB-231 cells at 5 to 20 umol/l pretreated for 48 hrs followed by replacement of fresh medium and measured after 15 days by crystal violet staining based assay; format: functional, cell-based; conditions: dose 5-20 µmol/L
MDA-MB-468 [28] = assay: Induction of apoptosis in human MDA-MB-468 cells assessed as increase in Bak expression measured after 48 hrs by Western blot analysis; format: functional, cell-based; conditions: dose 5-20 µM, DDE = dose-dependent effect
MDA-MB-468 [29] = assay: Induction of apoptosis in human MDA-MB-468 cells assessed as reduction in Bcl-2 expression measured after 48 hrs by Western blot analysis; format: functional, cell-based; conditions: dose 5-20 µM, DDE = dose-dependent effect
MDA-MB-468 [30] = assay: Induction of apoptosis in human MDA-MB-468 cells assessed as increase in cleaved caspase-3 expression measured after 48 hrs by Western blot analysis; format: functional, cell-based; conditions: dose 5-20 µM, DDE = dose-dependent effect
MDA-MB-468 [31] = assay: Induction of apoptosis in human MDA-MB-468 cells assessed as increase in cleaved caspase-9 expression measured after 48 hrs by Western blot analysis; format: functional, cell-based; conditions: dose 5-20 µM, DDE = dose-dependent effect
MDA-MB-468 [32] = assay: Antiproliferative activity against human MDA-MB-468 cells assessed as reduction in Ki67 expression measured after 48 hrs by immunofluorescence analysis; format: functional, cell-based

O=C(NC1CCCCC1)c1[nH]cnc1-c1nc2ccccc2[nH]1
50%: Activity (MDA-MB-231 [20])
12.9 µM: IC50 (U-251)
24 µM: IC50 (HSC-3)
15.4 µM: IC50 (U-87 MG)
active: Activity (MDA-MB-231 [1]) Dde | Activity (MDA-MB-231 [2]) Dde | Activity (MDA-MB-231 [3]) Dde | inhibition (MDA-MB-468 [4]) | Activity (MDA-MB-468 [5]) Dde | Activity [6] | Activity (MDA-MB-231 [7]) Dde | inhibition (HeLa) | Activity (MDA-MB-468 [8]) Dde | Activity (MDA-MB-231 [9]) | Activity (MDA-MB-231 [10]) Dde | inhibition (MDA-MB-231 [11]) Dde | Activity (MDA-MB-231 [12]) | Activity (MDA-MB-468 [13]) Dde | inhibition (MDA-MB-231 [14]) | Activity (MDA-MB-231 [15]) Dde | Activity (MDA-MB-231 [16]) Dde | Activity (MDA-MB-231 [17]) Dde | inhibition (MDA-MB-468 [18]) Dde | Activity (MDA-MB-231 [19]) Dde | Activity (MDA-MB-231 [21]) Dde | Activity (MDA-MB-468 [22]) Dde | inhibition (MDA-MB-468 [23]) Dde | Activity (MDA-MB-231 [24]) Dde | inhibition (MDA-MB-468 [25]) Dde | Activity (MDA-MB-468 [26]) | inhibition (MDA-MB-231 [27]) | Activity (MDA-MB-468 [28]) Dde | Activity (MDA-MB-468 [29]) Dde | Activity (MDA-MB-468 [30]) Dde | Activity (MDA-MB-468 [31]) Dde | Activity (MDA-MB-468 [32])
35.5 µM: IC50 (HCT-116)
25.4 µM: IC50 (SW-620)
